Assays:
MDA-MB-468 = assay: Cell cycle after drug washout, MDA-MB-468; assay type: cell-based, human; details: 650 nM for 72 h, then drug washout
Experimental: (§1) Cells were staining with propidium iodide then analyzed using a FACScan flow cytometer. […] After 72 h of treatment, control and treated cells were washed with PBS and re-incubated with compound (1-1) free medium (drug washout). As show in FIG. 14A-14C, significant differences in the percentage of compound (1-1)-treated cells in the G1, S and G2/M phases with respect to untreated controls were determined by a one-way ANOVA test (p<0.001) followed by an SNK a posteriori test. After washout, significant differences in the percentage of cells in a given cell cycle phase between control and pre-treated cells were determined with the Student t-test for independent samples with equal or different variance, as appropriate. * , × and # means significant difference between treated cells respect and controls in G1 phase (*p<0.05, **p<0.01), G2/M phase (×p<0.05, ××p<0.01) and S phase p<0.05, ## p<0.01), respectively. Each bar and vertical line represents the mean±SEM, respectively (n≥3).

Oral exposure in the rat = assay type: in vivo, Sprague Dawley rats; details: 1 mg/kg intravenous
Experimental: The oral bioavailability of three formulations of solid dispersions of compound (1-1) was determined in rats. The three dispersions chosen were the 25% dispersion of compound (1-1) in PVP, the 25% dispersion of compound (1-1) in HPMCAS-MG, and the 50% dispersion of compound (1-1) in HPMCAS-MG. The animals used in the study were Specific Pathogen Free (SPF) Hsd: Sprague Dawley rats obtained from the Central Animal Laboratory at the University of Turku, Finland. The rats were originally purchased from Harlan, The Netherlands. The rats were female and were ten weeks of age, and 12 rats were used in the study. […]
The oral dosing solutions containing the 25% dispersion of compound (1-1) in PVP, the 25% dispersion of compound (1-1) in HPMCAS-MG, and the 50% dispersion of compound (1-1) in HPMCAS-MG were prepared by adding a pre-calculated amount of sterile water for injection to containers holding the dispersion using appropriate quantities to obtain a concentration of 0.75 mg/mL of compound (1-1). […]
Pharmacokinetic parameters were calculated with the Phoenix WinNonlin software package (version 6.2.1, Pharsight Corp., CA, USA) with standard noncompartmental methods. The elimination phase half-life (t1/2) was calculated by least-squares regression analysis of the terminal linear part of the log concentration-time curve. […]

HCC1937 [1] = assay: MTT proliferation assay, HCC1937; details: Homo sapiens
MDA-MB-231 [2] = assay: MTT proliferation assay, MDA-MB-231; details: Homo sapiens
MDA-MB-231 [3] = assay: Cell counting proliferation, MDA-MB-231; assay type: cell-based; details: Homo sapiens
HCC1937 [4] = assay: Cell cycle after drug washout, HCC1937; assay type: cell-based, human; details: 650 nM for 72 h, then 48 h of drug washout
Experimental: as §1

[5] = HCC1937, 48 h, 48 h exposure, hypoxia (0.1% O2)
[6] = HCC1937, 48 h, 48 h exposure, normoxia
[7] = HCC1937, 72 h, 72 h exposure, hypoxia (0.1% O2)
[8] = MDA-MB-231, 48 h, 48 h exposure, hypoxia (0.1% O2)
[9] = MDA-MB-231, 48 h, 48 h exposure, normoxia
[10] = MDA-MB-231, 72 h, 72 h exposure, hypoxia (0.1% O2)
[11] = MDA-MB-231, 72 h, 72 h exposure, normoxia

CI/F (Oral exposure in the rat): 13.4 mL/min/kg | GI50 (HCC1937 [1]; [5]): 0.0231 µM | GI50 (HCC1937 [1]; [6]): 0.11 µM | GI50 (HCC1937 [1]; [7]): 0.029 µM | GI50 (HCC1937 [1]; HCC1937, 72 h, 72 h exposure, normoxia, * = apparent value): 0.0819 µM | GI50 (MDA-MB-231 [2]; [8]): 0.0633 µM | GI50 (MDA-MB-231 [2]; [9]): 0.132 µM | GI50 (MDA-MB-231 [2]; [10]): 0.0482 µM | GI50 (MDA-MB-231 [2]; [11]): 0.0817 µM | GI50 (MDA-MB-231 [3]; [8]): 0.144 µM | GI50 (MDA-MB-231 [3]; [9]): 0.0922 µM | GI50 (MDA-MB-231 [3]; [10]): 0.0491 µM | GI50 (MDA-MB-231 [3]; [11]): 0.0559 µM
Structure (SMILES): Cc1sc2c(c1C)C(c1ccc(Cl)cc1)=N[C@@H](CC(=O)Nc1ccc(O)cc1)c1nnc(C)n1-2 [Compound (1-1), 2-[(6S)-4-(4-chlorophenyl)-2,3,9-trimethyl-6H-thienol[3,2-f]-[1,2,4]triazolo[4,3-a][1,4]diazepin-6-yl]-N-(4-hydroxyphenyl)acetamide dihydrate]
cell cycle pattern after drug washout (MDA-MB-468): substantial (p<0.05) accumulation of cells in G2/M phase | Emax (HCC1937 [1]; [5]): 60% | Emax (HCC1937 [1]; [6]): 41% | Emax (HCC1937 [1]; [7]): 74% | Emax (HCC1937 [1]; HCC1937, 72 h, 72 h exposure, normoxia): 51% | Emax (MDA-MB-231 [2]; [8]): 68% | Emax (MDA-MB-231 [2]; [9]): 71% | Emax (MDA-MB-231 [2]; [10]): 83% | Emax (MDA-MB-231 [2]; [11]): 83% | Emax (MDA-MB-231 [3]; [8]): 67% | Emax (MDA-MB-231 [3]; [9]): 71% | Emax (MDA-MB-231 [3]; [10]): 82% | Emax (MDA-MB-231 [3]; [11]): 89% | cell cycle pattern after drug washout (HCC1937 [4]): recovered the control cell cycle pattern
